# Patent US20070135383A1, “Phospholipase inhibitors, including multi-valent phospholipase inhibitors, and use thereof, including as lumen-localized phospholipase inhibitors” (priority 2005, published 2007)
# Read-outs that look alike come from different tables or passages of the source.
# Assays:
# Test in all cases: Fluorimetric PPyrPM assay for group 1B PLA2 inhibition (Example 12)
# Assay type in all cases: biochemical
# [1] = target: T1, human group 1B PLA2 (hps PLA2) (Homo sapiens, UniProt P04054); details: for inhibition at 15 µM: read-out: ILYPSA % inhibition at 15 μM hps PLA2
# T1 construct: made in house; host or cells: E. coli
# T1 sequence (P04054 23-148): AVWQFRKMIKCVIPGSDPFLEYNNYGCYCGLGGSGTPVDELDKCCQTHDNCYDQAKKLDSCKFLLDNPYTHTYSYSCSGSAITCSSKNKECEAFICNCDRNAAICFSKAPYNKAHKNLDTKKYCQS
# From the text: (§1) In this example, a fluorimetric assay procedure was used to evaluate the indole and indole-related compounds of the invention as inhibitors of group 1B phospholipase A2 (PLA2) from human, mouse and porcine. A description of this assay is found in articles: Leslie, C C and Gelb, M H (2004) Methods in Molecular Biology “Assaying phospholipase A2 activity”, 284:229-242; Singer, A G, et al. (2002) Journal of Biological Chemistry “Interfacial kinetic and binding properties of the complete set of human and mouse groups I, II, V, X, and XII secreted phospholipases A2”, 277:48535-48549, which are incorporated herein as references.
# (§2) In general, this assay used a phosphatidylmethanol substrate with a pyrene fluorophore on the terminal end of the sn-2 fatty acyl chain. Without being bound by theory, close proximity of the pyrenes from neighboring phospholipids in a phospholipid vesicle caused the spectral properties to change relative to that of monomeric pyrene. Bovine serum albumin was present in the aqueous phase and captured the pyrene fatty acid when it is liberated from the glycerol backbone owing to the PLA2-catalyzed reaction. However, a potent inhibitor can inhibit the liberation of pyrene fatty acid from the glycerol backbone. […] The effect of a given inhibitor and inhibitor concentration on human, mouse and porcine phospholipase was determined.
# (§3) Recombinant human and mouse group 1B PLA2 were cloned and expressed in E. coli as insoluble inclusion bodies. The inclusion bodies were isolated and purified by sonicating cell pellet in lysis buffer (50 mM Tris-HCl pH 7.0, 250 mM NaCl, 0.5% Triton 100), centrifugation at 12,000×g, and washing three times in washing buffer (20 mM Tris-HCl pH 7.0, 250 mM NaCl, 0.5% Triton 100). Then the inclusion bodies were dissolved in dissolving buffer (50 mM Tris-HCl pH 7.0, 250 mM NaCl, 6 M Guanidine-HCl, 1 mM DTT) and dialyzed four times against 10 volumes of refolding buffer (20 mM Tris-HCl pH 7.0, 250 mM NaCl, 0.5M Guanidine-HCl, 5% (w/w) Glycerol, 2 mM reduced glutathione and 0.4 mM oxidized glutathione) at 4° C. The correctly refolded proteins were concentrated using Amicon Stirred cell under nitrogen pressure (<70 psi) and dialyzed against 10 volumes of 50 mM Tris-HCl pH 7.0, 250 mM NaCl and 5% (w/w) glycerol. Human and mouse group 1B PLA2 were further purified by High S ion exchange and gel filtration columns.
# (§4) The following reagents and equipments were obtained from commercial vendors: • 1. Porcine group 1B phospholipase A2 • 2. 1-hexadecanoyl-2-(1-pyrenedecanoyl)-sn-glycero-3-phosphomethanol (PPyrPM) • 3. Bovine serum albumin (BSA, fatty acid free) • 4. 2-Amino-2-(hydroxymethyl)-1,3-propanediol, hydrochloride (Tris-HCl) • 5. Calcium chloride • 6. Potassium chloride • 7. Solvents: DMSO, toluene, isopropanol, ethanol • 8. Molecular Devices SPECTRAmax microplate spectrofluorometer • 9. Costar 96 well black wall/clear bottom plate
# (§5) The following reagents were prepared: • 10. PPyrPM stock solution (1 mg/ml) in toluene:isopropanol (1:1) • 11. ILY104 inhibitor stock solution (10 mM) in DMSO • 12. 3% (w/v) bovine serum albumin (BSA) • 13. Stock buffer: 50 mM Tris-HCl, pH 8.0, 50 mM KCl and 1 mM CaCl2
# (§6) The following procedure was performed to evaluate the inhibitory potency of the evaluated compounds. • 14. An assay buffer was prepared by adding 3 ml 3% BSA to 47 ml stock buffer. • 15. Solution A was prepared by adding serially diluted inhibitors to the assay buffer. Inhibitors were three-fold diluted in stock buffer in a series of 8 from 15 uM. • 16. Solution B was prepared by adding human, mouse or porcine PLA2 to the assay buffer. This solution was prepared immediately before use to minimize enzyme activity loss. • 17. Solution C was prepared by adding 30 ul PPyrPM stock solution to 90 ul ethanol, and then all 120 ul of PPyrPM solution was transferred drop-wise over approximately 1 min to the continuously stirring 8.82 ml assay buffer to form a final concentration of 4.2 uM PPyrPM vesicle solution. • 18. […]
# [2] = target: T2, mouse group 1B PLA2 (mps PLA2) (Mus musculus, UniProt Q9Z0Y2); details: for inhibition at 15 µM: read-out: ILYPSA % inhibition at 15 μM mps PLA2
# T2 construct: made in house; host or cells: E. coli
# T2 sequence (Q9Z0Y2 23-146): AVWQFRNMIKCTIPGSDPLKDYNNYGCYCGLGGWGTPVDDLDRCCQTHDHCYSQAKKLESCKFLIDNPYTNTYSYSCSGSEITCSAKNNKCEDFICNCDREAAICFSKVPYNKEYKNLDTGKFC
# From the text: as §1, §2, §3, §4, §5, §6
# [3] = target: T3, porcine group 1B PLA2 (pps PLA2) (Sus scrofa, UniProt P00592); details: porcine pancreas secreted PLA2; for IC50: read-out: ILYPSA IC50 pps PLA2
# T3 construct: purchased
# T3 sequence (P00592 23-146): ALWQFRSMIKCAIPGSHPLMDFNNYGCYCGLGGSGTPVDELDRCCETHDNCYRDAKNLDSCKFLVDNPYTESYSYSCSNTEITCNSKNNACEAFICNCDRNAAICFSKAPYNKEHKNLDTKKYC
# From the text: as §1, §2, §4, §5
# The following procedure was performed to evaluate the inhibitory potency of the evaluated compounds. • 14. An assay buffer was prepared by adding 3 ml 3% BSA to 47 ml stock buffer. • 15. Solution A was prepared by adding serially diluted inhibitors to the assay buffer. Inhibitors were three-fold diluted in stock buffer in a series of 8 from 15 uM. • 16. Solution B was prepared by adding human, mouse or porcine PLA2 to the assay buffer. This solution was prepared immediately before use to minimize enzyme activity loss. • 17. Solution C was prepared by adding 30 ul PPyrPM stock solution to 90 ul ethanol, and then all 120 ul of PPyrPM solution was transferred drop-wise over approximately 1 min to the continuously stirring 8.82 ml assay buffer to form a final concentration of 4.2 uM PPyrPM vesicle solution. • 18. The SPECTRAmax microplate spectrofluorometer was set at 37° C. • 19. 100 ul of solution A was added to each inhibition assay well of a costar 96 well black wall/clear bottom plate • 20. 100 ul of solution B was added to each inhibition assay well of a costar 96 well black wall/clear bottom plate. • 21. 100 ul of solution C was added to each inhibition assay well of a costar 96 well black wall/clear bottom plate. • 22. The plate was incubated inside the spectrofluorometer chamber for 3 min. • 23. The fluorescence was read using an excitation of 342 nm and an emission of 395 nm.
# Evaluated compounds were tested in duplicate and their values were averaged to plot the inhibition curve and calculate the IC50. Compared to uninhibited controls, lower fluorescent signal at an emission of 395 nm in test reactions evidenced inhibition of PLA2. […] Compounds initially found to be active were repeated to confirm their inhibitory activity. […]
# [4] = human pancreas secreted PLA2, read-out: ILYPSA IC50 hps PLA2
# [5] = mouse pancreas secreted PLA2, read-out: ILYPSA IC50 mps PLA2
SMILES,"IC50 [1, 4] [nM]","IC50 [2, 5] [nM]",IC50 [3] [nM],inhibition at 15 µM ([1]; human pancreas secreted PLA2) [%],IC50 [1] [nM],IC50 [2] [nM],inhibition at 15 µM ([2]; mouse pancreas secreted PLA2) [%],"inhibition at 15 µM ([3]; read-out: ILYPSA % inhibition at 15 μM pps PLA2, 15 μM) [%]"
Cc1c(C(=O)C(N)=O)c2c(O)cccc2n1CCCCCCCCCCCCSCCCCCCCCCCCCn1c(C)c(C(=O)C(N)=O)c2c(O)cccc21 [ILY-V-35],1520,3650,2090,–,–,–,–,–
"Cc1c(C(=O)C(N)=O)c2c(OC(C(=O)O)C(C)C)cccc2n1CCCCCCCCCCCCn1c(C)c(C(=O)C(N)=O)c2c(OC(C(=O)O)C(C)C)cccc21 (centres unmarked) [ILY-V-44, 2-(3-Aminooxalyl-1-{12-[3-aminooxalyl-4-(1-carboxy-2-methyl-propoxy)-2-methyl-indol-1-yl]-dodecyl}-2-methyl-1H-indol-4-yloxy)-3-methyl-butyric acid]",280,480,50,–,–,–,–,–
"Cc1c(C(=O)C(N)=O)c2c(OCC(=O)O)cccc2n1CCCCCCCCCCCCOc1ccc(-c2ccc(OCCCCCCCCCCCCn3c(C)c(C(=O)C(N)=O)c4c(OCC(=O)O)cccc43)cc2)cc1 [ILY-V-36, [3-Aminooxalyl-1-(12-{4′-[12-(3-aminooxalyl-4-carboxymethoxy-2-methyl-indol-1-yl)-dodecyloxy]-biphenyl-4-yloxy}-dodecyl)-2-methyl-1H-indol-4-yloxy]-acetic acid]",1250,920,440,–,–,–,–,–
"Cc1c(C(=O)C(N)=O)c2c(OC(F)C(N)=O)cccc2n1Cc1ccccc1 (centres unmarked) [ILY-IV-28, 2-(3-Aminooxalyl-1-benzyl-2-methyl-1H-indol-4-yloxy)-2-fluoro-acetamide]",2600,1440,160,–,–,–,–,–
C=CCn1c(C)c(C(=O)C(N)=O)c2c(OCC(=O)O)cccc21 [ILY-V-10],–,3210,460,64,–,–,–,–
"Cc1c(C(=O)C(N)=O)c2c(OCC(=O)O)cccc2n1CCCCCCCCCCCCSCCCCSCCCCCCCCCCCCn1c(C)c(C(=O)C(N)=O)c2c(OCC(=O)O)cccc21 [ILY-V-25, 2,2′-(1,1′-(12,12′-(Butane-1,4-diylbis(sulfanediyl))bis(dodecane-12,1-diyl))bis(3-(2-amino-2-oxoacetyl)-2-methyl-1H-indole-4,1-diyl))bis(oxy)diacetic acid]",150,350,190,–,–,–,–,–
"Cc1c(C(=O)C(N)=O)c2c(OCC(=O)NS(C)(=O)=O)nccc2n1Cc1ccccc1 [ILY-II-7, 2-[1-Benzyl-4-(2-methanesulfonylamino-2-oxo-ethoxy)-2-methyl-1H-pyrrolo[3,2-c]pyridin-3-yl]-2-oxo-acetamide]",2070,1050,40,–,–,–,–,–
"CCC(Oc1nccc2c1c(C(=O)C(N)=O)c(C)n2Cc1ccccc1)C(=O)O (centres unmarked) [ILY-II-11, 2-(3-Aminooxalyl-1-benzyl-2-methyl-1H-pyrrolo[3,2-c]pyridin-4-yloxy)-butyric acid]",–,–,< 20,–,480,30,–,–
"Cc1c(C(=O)C(N)=O)c2c(OCC(=O)O)cccc2n1CCCCCCCCCCCCN(CCCCCCCCCCCCn1c(C)c(C(=O)C(N)=O)c2c(OCC(=O)O)cccc21)Cc1ccccc1 [ILY-V-31, 2,2′-(1,1′-(12,12′-(benzylazanediyl)bis(dodecane-12,1-diyl))bis(3-(2-amino-2-oxoacetyl)-2-methyl-1H-indole-4,1-diyl))bis(oxy)diacetic acid]",100,30,20,–,–,–,–,–
"Cc1c(C(=O)C(N)=O)c2c(OCC(=O)NS(C)(=O)=O)cccc2n1Cc1ccccc1 [ILY-IV-21, 1-Benzyl-2-methyl-4-methanesulfonamidoylmethyloxy-1H-indol-3-glyoxylamide]",1160,320,< 20,–,–,–,–,–
"Cc1c(C(=O)C(N)=O)c2c(OC(C(=O)O)c3ccccc3)cccc2n1Cc1ccccc1 (centres unmarked) [ILY-IV-32, (3-Aminooxalyl-1-benzyl-2-methyl-1H-indol-4-yloxy)-phenyl-acetic acid]",–,–,–,41.7,–,–,47.5,38.5
"Cc1c(C(=O)C(N)=O)c2c(OCC(=O)O)c(Br)ccc2n1Cc1ccccc1 [ILY-IV-3, (3-Aminooxalyl-1-benzyl-5-bromo-2-methyl-1H-indol-4-yloxy)-acetic acid]",–,–,5870,35.8,–,–,39.8,–
"CCc1c(C(=O)C(N)=O)c2c(OCC(=O)O)nccc2n1Cc1ccccc1 [ILY-II-9, 2-(3-(2-amino-2-oxoacetyl)-1-benzyl-2-ethyl-1H-pyrrolo[3,2-c]pyridin-4-yloxy)acetic acid]",1460,350,30,–,–,–,–,–
"Cc1c(C(=O)C(N)=O)c2c(OC(C(=O)O)C(=O)O)cccc2n1Cc1ccccc1 [ILY-IV-8, 2-(3-Aminoooxalyl-1-benzyl-2-methyl-1H-indol-4-yloxy)-malonic acid]",–,–,2250,41,–,–,61.2,–
"Cc1c(CC(N)=O)c2c(OCC(=O)O)cccc2n1Cc1ccccc1 [ILY-III-22, (1-Benzyl-3-carbamoylmethyl-2-methyl-1H-indol-4-yloxy)-acetic acid]",1320,890,–,–,–,–,–,–
"Cc1c(C(=O)C(N)=O)c2c(OCC(=O)O)cccc2n1CCCCCCCCSCCCCSCCCCCCCCn1c(C)c(C(=O)C(N)=O)c2c(OCC(=O)O)cccc21 [ILY-V-23, 2,2′-(1,1′-(8,8′-(butane-1,4-diylbis(sulfanediyl))bis(octane-8,1-diyl))bis(3-(2-amino-2-oxoacetyl)-2-methyl-1H-indole-4,1-diyl))bis(oxy)diacetic acid]",2160,550,1120,–,–,–,–,–
"Cc1c(C(=O)C(N)=O)c2c(OC(CC(C)C)C(=O)O)cccc2n1Cc1ccccc1 (centres unmarked) [ILY-IV-47, 2-(3-Aminooxalyl-1-benzyl-2-methyl-1H-indol-4-yloxy)-4-methyl-pentanoic acid]",2940,2430,20,–,–,–,–,–
